Assay results published in paper PMC3735122 (mBio, 2013).

Tests used:
Assay type in all cases: cell-based, influenza virus H7N9
A/Shanghai/2/2013 virus = assay: organism not typed
[1] = system: A/Shanghai/1/2013-NA^R292 (WT no. 6) virus; assay: organism not typed
[2] = system: A/Shanghai/1/13 virus (mixed R/K at NA residue 292)
[3] = MDCK, read-out: 90% effective concentration [EC90]

Row | SMILES | concentration at which replication was completely inhibited (A/Shanghai/2/2013 virus) [µM] | concentration at which replication was completely inhibited [1] [µM] | sensitivity in MDCK cells compared to the A/Shanghai/2/2013 virus [1] | sensitivity in MDCK cells relative to the A/Shanghai/2/2013 virus [2] | EC90 (A/Shanghai/2/2013 virus; [3]) [µM] | EC90 [1, 3] [µM]
1 | CCC(CC)O[C@@H]1C=C(C(=O)O)C[C@H](N)[C@H]1NC(C)=O [oseltamivir carboxylate] | 31.25 | 250 | reduced sensitivity | – | – | –
2 | NC(=O)c1nc(F)c[nH]c1=O [favipiravir] | – | – | – | comparable dose-response curves | 1.43 | 10.4
3 | CC(=O)N[C@H]1[C@H]([C@H](O)[C@H](O)CO)OC(C(=O)O)=C[C@@H]1N=C(N)N [zanamivir] | 125 | > 125 | reduced sensitivity | – | – | –
